Reference: PMC9704608, “Anti-leishmanial physalins—Phytochemical investigation, in vitro evaluation against clinical and MIL-resistant L. tropica strains and in silico studies” (PLOS ONE, 2022)
Read-outs that look alike come from different tables or passages of the source.

Key:
[1] = system: BJ (human fibroblast) cells; assay: Cytotoxicity (MTT) against BJ cell line; format: cell-based; conditions: for BJ (human fibroblast) IC50 (μM± SD): cytotoxicity of compounds 1-9; for BJ cell line CC50 (μM± SD): pure compounds, human fibroblast, 48 h
Experimental: (§1) The cytotoxicity of the test compounds against normal cell lines was evaluated through MTT (3-[4, 5-dimethylthiazole-2-yl]-2, 5-diphenyl-tetrazolium bromide] colorimetric assay in 96-well flat-bottomed microplates. The 3T3 (mouse fibroblast) and BJ (human fibroblast) were cultured Dulbecco’s Modified Eagle Medium, supplemented with 5% of fetal bovine serum (FBS), 100 IU/mL of penicillin and 100 μg/mL of streptomycin in 75 cm2 flasks, and then incubated in 5% CO2 incubator at 37°C. The growing cells were counted by using a haemocytometer, and diluted with the particular medium. The 5x10^4 cells/mL of the cell culture was prepared, and a sample […] was introduced into each well. […] After 48 hours, 200 μL MTT (0.5 mg/mL) was added, and the incubation was further continued for 4 hrs. After that time, 100 μL of DMSO was added to each well. The absorbance was measured using a micro plate reader (Spectra Max Plus, Molecular Devices, CA, USA) at 570 nm for the extent of MTT reduction to formazan within the cells. The cytotoxicity was recorded as CC50 against cells by using Soft- Max Pro software. Doxorubicin and cycloheximide were used as positive control. The experiments were run in triplicate.

[2] = Cytotoxicity (MTT) against BJ cell line; format: cell-based, human; conditions: pure compounds, human fibroblast, 48 h, read-out: BJ cell line CC50 (μM± SD)
Experimental: as §1

L. major promastigotes = assay: Promastigote growth inhibition assay (MTT), L. major; format: cell-based, Leishmania major; conditions: for IC50: Leishmania major; for IC50 / L. major IC50 (μM± SD): 72 h; for anti-leishmanial activity against promastigotes of L. major (in words): in vitro
Experimental: (§2) L. major and L. tropica (Clinical isolates) promastigotes were grown at […] in RPMI-1640 (Sigma) medium containing 10% of heat-inactivated (56°C for 30 min) fetal bovine serum. Cell viability was initially evaluated by wet mount method by observing the live cells under compound microscope. Parasite growth was assessed by counting live / motile promastigotes in a Neubauer chamber. Viable cell count was used for the further experimentations (treatments).
(§3) The promastigotes in their log phase were used in 96-well plates. 1 × 10^6 wild-type and resistant promastigotes were dispensed in 96 96-well plates, and incubated with tested compounds at a range concentration of 200–10 μM at 27°C for 72 h. After incubation of 72 h, MTT dye (3-(4,5-dimethylthiazol-2-yl)-2,5-diphenyl-2H-tetrazolium bromide) was added and further incubate it for 3–4 h. Amphotericin B, pantamidine and miltefosine were used as the positive control, untreated promastigotes were used as negative control moreover DMSO control was also added in the study as a stock solution of the compounds that were prepared in DMSO. All the experiments were performed in triplicates. After completion of the experiment the absorbance by Multiskan ascent plate reader at 452 nm and percent inhibition was calculated by the following formula.
(§4) Cytotoxic concentration (%) = [100- (Absorbance of test)/ (Absorbance of solvent control) ×100] %.

L. tropica promastigotes = assay: Promastigote growth inhibition assay (MTT), L. tropica clinical isolates; format: cell-based, Leishmania tropica; conditions: for IC50: Leishmania tropica; for IC50 / L. tropica IC50 (μM± SD): 72 h
Experimental: as §2, §3, §4

[3] = system: 3T3 (mouse fibroblast) cells; assay: Cytotoxicity (MTT) against 3T3 cell line; format: cell-based; conditions: for 3T3 (mouse fibroblast) IC50 (μM ± SD): cytotoxicity of compounds 1-9; for 3T3 Cell line CC50 (μM± SD): pure compounds, mouse fibroblast, 48 h
Experimental: The cytotoxicity of the test compounds against normal cell lines was evaluated through MTT (3-[4, 5-dimethylthiazole-2-yl]-2, 5-diphenyl-tetrazolium bromide] colorimetric assay in 96-well flat-bottomed microplates. The 3T3 (mouse fibroblast) and BJ (human fibroblast) were cultured Dulbecco’s Modified Eagle Medium, supplemented with 5% of fetal bovine serum (FBS), 100 IU/mL of penicillin and 100 μg/mL of streptomycin in 75 cm2 flasks, and then incubated in 5% CO2 incubator at 37°C. The growing cells were counted by using a haemocytometer, and diluted with the particular medium. The 5x10^4 cells/mL of the cell culture was prepared, and a sample […] was introduced into each well. The medium was removed after overnight incubation, and 200 μL of fresh medium was added with different concentrations of compounds (1–30 μM). After 48 hours, 200 μL MTT (0.5 mg/mL) was added, and the incubation was further continued for 4 hrs. After that time, 100 μL of DMSO was added to each well. The absorbance was measured using a micro plate reader (Spectra Max Plus, Molecular Devices, CA, USA) at 570 nm for the extent of MTT reduction to formazan within the cells. The cytotoxicity was recorded as CC50 against cells by using Soft- Max Pro software. Doxorubicin and cycloheximide were used as positive control. The experiments were run in triplicate.

[4] = system: MIL-resistant L. tropica promastigotes; assay: Growth inhibition assay (MTT) against MIL-resistant line; format: cell-based, Leishmania tropica; conditions: 72 h; for MIL Resistant L. tropica IC50 (μM± SD): miltefosine-unresponsive strain, promastigotes
Experimental: as §3, §4
Promastigote cultures tL. tropica (Clinical isolates) were maintained at 26°C in RPMI-1640 medium containing 15% FBS and 1% penicillin–streptomycin mixture.
Generation of miltefosine-unresponsive strain was carried under high MIL pressure by in vitro passage with a stepwise increase in the MIL concentration. At each step, parasites were cultured and passaged every 3–4 days at an initial concentration of 5x10^5 promastigotes/mL in order to achieve -stable growth as compared to the wildtype isolate. Growth rates were measured for resistant populations and compared with the WT strain. Parasites were counted at an initial concentration of 5x10^5 parasites/mL and growth was measured daily using a Neubauer chamber until the population reached the stationary phase. Furthermore, the fluorescence microscopic investigations via DAPI stain were also carried out to supplement the study.

[5] = extracts, fractions, standard drugs, promastigotes, read-out: L. major IC50 (μg/ml ± SD)
[6] = pure compounds, standard drugs, promastigotes, read-out: L. major IC50 (μM± SD)
[7] = extracts, fractions, standard drugs, promastigotes, read-out: L. tropica IC50 (μg/ml ± SD)
[8] = pure compounds, standard drugs, promastigotes, clinical isolate, read-out: L. tropica IC50 (μM± SD)
[9] = pure compounds, standard drugs, promastigotes
[10] = pure compounds, standard drugs, promastigotes, clinical isolate
[11] = read-out: L. tropica IC50 (μM± SD)

| IC50 (L. major promastigotes; [5]) | IC50 (L. major promastigotes; [6]) | IC50 (L. tropica promastigotes; [7]) | IC50 (L. tropica promastigotes; [8]) | SMILES | 3T3 (mouse fibroblast) IC50 (μM ± SD) [3] | BJ (human fibroblast) IC50 (μM± SD) [1] | anti-leishmanial activity against promastigotes of L. major (in words) (L. major promastigotes) | L. major IC50 (μM± SD) (L. major promastigotes; [9]) | 3T3 Cell line CC50 (μM± SD) [3] | further results |
| --- | --- | --- | --- | --- | --- | --- | --- | --- | --- | --- |
| 3.14 ± 0.04 µg/mL | 3.39 ± 0.043 µM | 3.16 ± 0.04 µg/mL | 3.42 ± 0.04 µM | C[C@@H]1[C@H](O)[C@@H](C)/C=C/C=C/C=C/C=C/C=C/C=C/C=C/[C@H](O[C@@H]2O[C@H](C)[C@@H](O)[C@H](N)[C@@H]2O)C[C@@H]2O[C@](O)(C[C@@H](O)C[C@@H](O)[C@H](O)CC[C@@H](O)C[C@@H](O)CC(=O)O[C@H]1C)C[C@H](O)[C@H]2C(=O)O [Amphotericin B, reference compound] | – | – | – | – | – | L. tropica SI (CC50/ IC50) ([1]; CC50 BJ cell line / IC50 L. tropica): 4.69; CC50 at 48 h ([2]; BJ fibroblast cells): 16.1 µM; L. major SI (CC50/ IC50) (L. major promastigotes; CC50 BJ fibroblast cell line / IC50 L. major): 4.37; L. tropica SI (CC50/ IC50) (L. tropica promastigotes; CC50 BJ fibroblast cell line / IC50 L. tropica): 4.69 |
| – | – | – | – | CC12C(=O)C=CC=C1C(O)CC1C(=O)C3=NCC4C(=O)OC5CC4(C)C3C3(O)C(O)(CCC12)C(=O)OC53C (centres unmarked) [Compound 1, Aminophysalin B] | Non cytotoxic | Non cytotoxic | no significant activity | Inactive | – | BJ cell line CC50 (μM± SD) [1]: Non cytotoxic; L. tropica IC50 (μM± SD) (L. tropica promastigotes; [10]): Inactive |
| – | – | – | – | C[C@]12C(=O)C=CC=C1[C@@H](O)C[C@@H]1[C@@H]2CC[C@@]2(O)C(=O)O[C@@]3(C)[C@H]4C[C@]5(C)[C@@H](CO[C@@]16O[C@]23[C@H]5C6=O)C(=O)O4 [Compound 7, Physalin G] | Non cytotoxic | Non cytotoxic | no significant activity | – | Non cytotoxic | CC50 at 48 h [2]: > 100 µM; IC50 (L. major promastigotes; read-out: L. major IC50 (μM± SD)): 52.3 ± 1.18 µM; IC50 ([4]; Leishmania tropica, read-out: MIL Resistant L. tropica IC50 (μM± SD)): 39.4 ± 0.65 µM; IC50 (L. tropica promastigotes; [11]): 19.49 ± 0.02 µM |
| – | – | – | – | CC12CC3OC(=O)C1COC14OC5(C2C1=O)C(O)(CC(O)C1C4CC(O)C24C=CC(OO2)C(=O)C14C)C(=O)OC35C (centres unmarked) [Compound 8, Physalin K] | Non cytotoxic | Non cytotoxic | no significant activity | inactive | Non cytotoxic | CC50 [2]: > 100 µM; MIL Resistant L. tropica IC50 (μM± SD) [4]: inactive; L. tropica IC50 (μM± SD) (L. tropica promastigotes; [10]): inactive |
| – | – | – | – | C[C@@]12C[C@H]3OC(=O)[C@@H]1CO[C@@]14O[C@]5([C@H]2C1=O)[C@@](O)(CC[C@H]1[C@H]4C[C@@H](O)[C@@]2(O)CC=CC(=O)[C@]12C)C(=O)O[C@@]35C [Compound 9, Physalin D] | Non cytotoxic | Non cytotoxic | no significant activity | inactive | Non cytotoxic | CC50 at 48 h [2]: > 100 µM; MIL Resistant L. tropica IC50 (μM± SD) [4]: inactive; IC50 (L. tropica promastigotes; [11]): 55.24 ± 0.01 µM |
| 9.25 ± 0.005 µg/mL | 27.2 ± 0.015 µM | 9.25 ± 0.005 µg/mL | 27.2 ± 0.01 µM | N=C(N)c1ccc(OCCCCCOc2ccc(C(=N)N)cc2)cc1 [Pentamidine, reference compound] | – | – | – | – | – | – |

| SMILES | IC50 (L. major promastigotes; [5]) | IC50 (L. major promastigotes; [6]) | IC50 (L. tropica promastigotes; [7]) | IC50 (L. tropica promastigotes; [8]) | 3T3 (mouse fibroblast) IC50 (μM ± SD) [3] | BJ (human fibroblast) IC50 (μM± SD) [1] | anti-leishmanial activity against promastigotes of L. major (in words) (L. major promastigotes) | L. major IC50 (μM± SD) (L. major promastigotes; [9]) | 3T3 Cell line CC50 (μM± SD) [3] | further results |
| --- | --- | --- | --- | --- | --- | --- | --- | --- | --- | --- |
| CCCCCCCCCCCCCCCCOP(=O)([O-])OCC[N+](C)(C)C [Miltefosine, reference compound] | 10.4 ± 0.42 µg/mL | 25.6 ± 1.03 µM | 17.4 ± 0.42 µg/mL | 42.8 ± 1.03 µM | – | – | – | – | – | BJ cell line CC50 (μM± SD) [1]: non-toxic |
